Starred links: 1 amine or outer side, 2 acyl side, 3 side chain; linkers in the order of their positions; H or OH if unused. Positions of bridges follow the written chain, without caps; N, C: chain ends. Residues, ends and D or L forms follow the SMILES beside them. Chains are numbered I, II in the order given. X1 = O=C(CCOCCOCCOCCOCCOCCOCCOCCOCCOCCOCCOCCOCCOCCOCCOCCOCCOCCOCCOCCOCCOCCOCCOCCOCCOCCC(=O)[*:2])[*:1]
Experiments:
[1] = target: T1, Vascular endothelial growth factor A, long form (Homo sapiens) (UniProt P15692); test: Binding affinity to human VEGF (13 to 107 residues) expressed in Escherichia coli Rosetta (DE3) cells assessed as change in enthalpy at 37 degreeC by direct titration based isothermal titration calorimetry analysis
T1 sequence (whole entry): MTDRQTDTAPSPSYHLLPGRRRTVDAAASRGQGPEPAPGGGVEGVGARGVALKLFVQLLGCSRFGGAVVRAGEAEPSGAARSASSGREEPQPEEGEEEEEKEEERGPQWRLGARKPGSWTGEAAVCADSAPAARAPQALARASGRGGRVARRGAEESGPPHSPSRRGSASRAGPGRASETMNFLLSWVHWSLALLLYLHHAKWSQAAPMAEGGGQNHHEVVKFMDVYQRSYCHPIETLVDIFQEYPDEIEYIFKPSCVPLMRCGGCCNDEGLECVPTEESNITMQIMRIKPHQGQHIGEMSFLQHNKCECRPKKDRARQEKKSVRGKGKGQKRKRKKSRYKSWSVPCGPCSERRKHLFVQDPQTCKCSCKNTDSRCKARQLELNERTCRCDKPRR

[2] = target: T1, Vascular endothelial growth factor A, long form (Homo sapiens); test: Binding affinity to human VEGF (13 to 107 residues) expressed in Escherichia coli Rosetta (DE3) cells assessed as change in enthalpy at 20 degreeC by isothermal titration calorimetry analysis
[3] = target: T1, Vascular endothelial growth factor A, long form (Homo sapiens); test: Binding affinity to human VEGF (13 to 107 residues) expressed in Escherichia coli Rosetta (DE3) cells assessed as change in entropy at 37 degreeC by direct titration based isothermal titration calorimetry analysis
[4] = target: T1, Vascular endothelial growth factor A, long form (Homo sapiens); test: Binding affinity to human VEGF (13 to 107 residues) expressed in Escherichia coli Rosetta (DE3) cells assessed as change in enthalpy at 20 degreeC by direct titration based isothermal titration calorimetry analysis
[5] = target: T1, Vascular endothelial growth factor A, long form (Homo sapiens); test: Binding affinity to human VEGF (13 to 107 residues) expressed in Escherichia coli Rosetta (DE3) cells assessed as change in entropy at 37 degreeC by isothermal titration calorimetry analysis
[6] = target: T2, Vascular endothelial growth factor A, long form (Homo sapiens, UniProt P15692); test: Binding affinity to human VEGF (13 to 107 residues) expressed in Escherichia coli Rosetta (DE3) cells assessed as dissociation constant at 37 degreeC by direct titration based isothermal titration calorimetry analysis
T2 sequence (P15692 whole entry): T1 sequence (whole entry)

[7] = target: T1, Vascular endothelial growth factor A, long form (Homo sapiens); test: Binding affinity to human VEGF (13 to 107 residues) expressed in Escherichia coli Rosetta (DE3) cells assessed as change in enthalpy at 37 degreeC by reverse titration based isothermal titration calorimetry analysis
[8] = target: T1, Vascular endothelial growth factor A, long form (Homo sapiens); test: Binding affinity to human VEGF (13 to 107 residues) expressed in Escherichia coli Rosetta (DE3) cells assessed as Gibbs free energy change at 20 degreeC by isothermal titration calorimetry analysis
[9] = target: T2, Vascular endothelial growth factor A, long form; test: Binding affinity to human VEGF (13 to 107 residues) expressed in Escherichia coli Rosetta (DE3) cells assessed as dissociation constant at 20 degreeC by isothermal titration calorimetry analysis
[10] = target: T1, Vascular endothelial growth factor A, long form (Homo sapiens); test: Binding affinity to human VEGF (13 to 107 residues) expressed in Escherichia coli Rosetta (DE3) cells assessed as change in entropy at 20 degreeC by isothermal titration calorimetry analysis
[11] = target: T1, Vascular endothelial growth factor A, long form (Homo sapiens); test: Binding affinity to human VEGF (13 to 107 residues) expressed in Escherichia coli Rosetta (DE3) cells assessed as Gibbs free energy change at 37 degreeC by isothermal titration calorimetry analysis
[12] = target: T1, Vascular endothelial growth factor A, long form (Homo sapiens); test: Binding affinity to human VEGF (13 to 107 residues) expressed in Escherichia coli Rosetta (DE3) cells assessed as change in enthalpy at 20 degreeC by reverse titration based isothermal titration calorimetry analysis
HUVEC [13] = test: Antiangiogenic activity in human HUVEC cells assessed as inhibition of VEGFA-induced capillary tube formation incubated for 6 hrs by matrigel based microscopic analysis; format: functional, cell-based
[14] = target: T2, Vascular endothelial growth factor A, long form; test: Binding affinity to human VEGF (13 to 107 residues) expressed in Escherichia coli Rosetta (DE3) cells assessed as dissociation constant at 20 degreeC by direct titration based isothermal titration calorimetry analysis
[15] = target: T1, Vascular endothelial growth factor A, long form (Homo sapiens); test: Binding affinity to human VEGF (13 to 107 residues) expressed in Escherichia coli Rosetta (DE3) cells assessed as change in entropy at 37 degreeC by reverse titration based isothermal titration calorimetry analysis
[16] = target: T2, Vascular endothelial growth factor A, long form; test: Binding affinity to human VEGF (13 to 107 residues) expressed in Escherichia coli Rosetta (DE3) cells assessed as dissociation constant at 20 degreeC by reverse titration based isothermal titration calorimetry analysis
HUVEC [17] = test: Antiangiogenic activity in human HUVEC cells assessed as inhibition of VEGFA-induced cell migration incubated for 12 hrs by wound healing assay; format: functional, cell-based
[18] = target: T1, Vascular endothelial growth factor A, long form (Homo sapiens); test: Binding affinity to human VEGF (13 to 107 residues) expressed in Escherichia coli Rosetta (DE3) cells assessed as change in heat capacity at 20 degreeC by isothermal titration calorimetry analysis
[19] = target: T2, Vascular endothelial growth factor A, long form; test: Binding affinity to human VEGF (13 to 107 residues) expressed in Escherichia coli Rosetta (DE3) cells assessed as dissociation constant at 37 degreeC by reverse titration based isothermal titration calorimetry analysis
[20] = target: T1, Vascular endothelial growth factor A, long form (Homo sapiens); test: Binding affinity to human VEGF (13 to 107 residues) expressed in Escherichia coli Rosetta (DE3) cells assessed as change in enthalpy at 37 degreeC by isothermal titration calorimetry analysis
[21] = target: T1, Vascular endothelial growth factor A, long form (Homo sapiens); test: Binding affinity to human VEGF (13 to 107 residues) expressed in Escherichia coli Rosetta (DE3) cells assessed as change in entropy at 20 degreeC by direct titration based isothermal titration calorimetry analysis
[22] = target: T1, Vascular endothelial growth factor A, long form (Homo sapiens); test: Binding affinity to human VEGF (13 to 107 residues) expressed in Escherichia coli Rosetta (DE3) cells assessed as change in entropy at 20 degreeC by reverse titration based isothermal titration calorimetry analysis
[23] = target: T2, Vascular endothelial growth factor A, long form; test: Binding affinity to human VEGF (13 to 107 residues) expressed in Escherichia coli Rosetta (DE3) cells assessed as dissociation constant at 37 degreeC by isothermal titration calorimetry analysis

deltaH [1]: -50.2 kcal/mol
deltaH [2]: -37.5 kcal/mol
deltaS [3]: -127 cal/mol.K
deltaH [4]: -35.6 kcal/mol
-TdeltaS [5]: 39.5 kcal/mol
Kd [6]: 26 nM
deltaH [7]: -50.6 kcal/mol
deltaG [8]: -10.8 kcal/mol
Kd [9]: 9 nM
-TdeltaS [10]: 26.7 kcal/mol
deltaG [11]: -10.8 kcal/mol
deltaH [12]: -37.4 kcal/mol
Kd [14]: 12 nM
deltaS [15]: -127 cal/mol.K
Kd [16]: 11 nM
DeltaCp [18]: -0.75 kcal/mol/K
Kd [19]: 14 nM
deltaH [20]: -50.3 kcal/mol
deltaS [21]: -95.4 cal/mol.K
deltaS [22]: -91.1 cal/mol.K
Kd [23]: 26 nM
SMILES: CC[C@H](C)[C@@H]1NC(=O)[C@H](CC(=O)O)NC(=O)[C@@H](NC(C)=O)CSSC[C@@H]2NC(=O)[C@H](CCCCNC(=O)C[C@@H](C(=O)N[C@@H](CC(C)C)C(N)=O)NC(=O)[C@H](CCC(=O)O)NC(=O)[C@H](Cc3ccccc3)NC2=O)NC(=O)[C@H](Cc2c[nH]c3ccccc23)NC(=O)[C@H](CCC(=O)O)NC(=O)[C@H](Cc2c[nH]c3ccccc23)NC(=O)[C@H](CCCCNC(=O)CCOCCOCCOCCOCCOCCOCCOCCOCCOCCOCCOCCOCCOCCOCCOCCOCCOCCOCCOCCOCCOCCOCCOCCOCCOCCC(=O)NCCCC[C@@H]2NC(=O)[C@H](C(C)C)NC(=O)[C@H](Cc3cnc[nH]3)NC(=O)[C@H]([C@@H](C)CC)NC(=O)[C@H](CC(=O)O)NC(=O)[C@@H](NC(C)=O)CSSC[C@@H]3NC(=O)[C@H](CCCCNC(=O)C[C@@H](C(=O)N[C@@H](CC(C)C)C(N)=O)NC(=O)[C@H](CCC(=O)O)NC(=O)[C@H](Cc4ccccc4)NC3=O)NC(=O)[C@H](Cc3c[nH]c4ccccc34)NC(=O)[C@H](CCC(=O)O)NC(=O)[C@H](Cc3c[nH]c4ccccc34)NC2=O)NC(=O)[C@H](C(C)C)NC(=O)[C@H](Cc2cnc[nH]2)NC1=O (I: Ac-CDIHVKWEWKCFEDL-NH2 / II: Ac-CDIHVKWEWKCFEDL-NH2; disulfide I:1-I:11, II:1-II:11; linker I:6-II:6 via X1; lactam I:10-I:14, II:10-II:14)
Activity (HUVEC [13]): Dose-Dependent Effect
Activity (HUVEC [17]): Dose-Dependent Effect

From ChEMBL document CHEMBL5346952, “Dimer Peptide Ligands of Vascular Endothelial Growth Factor: Optimizing Linker Length for High Affinity and Antiangiogenic Activity” (J Med Chem, 2023)
